Laboratory results taken from publication PMC9917735, “Optimization of the Hemolysis Assay for the Assessment of Cytotoxicity” (International Journal of Molecular Sciences, 2023).
In brackets after ≈: the same amount, converted by molar mass. Read-outs that look alike come from different tables or passages of the source.

How the values were obtained:
E. coli = conditions: E. coli
[1] = tested on: washed human erythrocytes; assay: Hemolysis assay, washed human erythrocytes
human whole blood = conditions: for Calculated hemolysis ratio: human whole blood, peptides 100 μM, 60 min 37 °C, neg. PBS, 3 x 2 replicates
mouse erythrocytes = conditions: AMPs 100 μM, 1 hour 37 °C, pos. 10% Triton X-100, neg. PBS, 3 x 2 replicates
Source text: (§1) Cytotoxicity studies are important during characterization of novel compounds or materials intended for interactions within human biological systems in vivo. Evaluation of the extent to which the compound induces disruption of the membrane of erythrocytes (red blood cells), thereby causing release of cellular content, often constitutes an initial step in such cytotoxicity assessments. The assay used in this context is generally referred to as the hemolysis assay, which has the advantages of being cheap, accessible, and simple to perform. Blood is drawn from a human or an animal, and next, the washed erythrocytes are incubated together with the compound or material under investigation. If the compound causes hemolysis, hemoglobin (along with other cellular constituents) will be released into the supernatant.
(§2) Blood from mice, rats, and rabbits was provided by the Department of Comparative Medicine at Oslo University Hospital (Marianne Aannestad). For mice and rats, the blood was collected from the heart by using 25 G and 21 G needles, respectively, whereas for rabbits, the blood was collected by free bleed through the ear using a yellow neoflon (24 G). All animals were wild type and anesthetized prior to the procedure.
(§3) All blood was collected in Lithium Heparin tubes 4 mL (Greiner Bio-One, Kremsmünster, Austria) or Coagulation sodium citrate 3.2% tubes 3 mL (Greiner Bio-One).
(§4) AMP 2 contained an N-terminal hexanoic acid moiety, whereas all peptides contained amidated C-termini. These three peptides were synthesized by Genscript Inc. (Piscataway, NJ, USA), and stock solutions of 1 mg/mL were made from the purchased powders. […] All peptides were diluted to yield a 100 μM final concentration in the hemolysis assays.
(§5) Triton X-100 (T8787) and Tween-20 (P2287) detergents were purchased from Sigma Aldrich and diluted to obtain 10% stock solutions by weighing (w/v). A sodium Dodecyl Sulfate (SDS) 10% solution was purchased from Invitrogen (Waltham, MA, USA, 15553027). All subsequent dilutions annotated in figures were made from these stocks.
(§6) As soon as possible after phlebotomy, the blood samples were centrifuged at 1700× g for 5 min. The supernatant was removed by aspiration and 2 mL of PBS pH 7 was added. The washing step was repeated three times or until the supernatant was clear. After final aspiration, the remaining pellet was diluted 1:100 in PBS pH 7 to obtain a 1% erythrocyte suspension (or 1:100, 1:50, and 1:20 for assays testing the effect of erythrocyte concentration). For experiments using whole blood, the washing steps were not performed, but downstream experimentation was identical. For experiments performed with 96-well plates, 50 μL of test compound, water, or detergent were mixed with 50 μL of blood sample (1% erythrocyte suspension or whole blood). For experiments using larger volumes, 250 μL of test compound, water, or detergent were mixed with 250 μL blood sample in an Eppendorf tube. Samples were subsequently incubated at 37 °C for 60 min (or 15, 30, 60, 90, or 120 min for assays evaluating the effect of incubation time). After incubation, the plates/tubes were centrifuged at 1700× g for 5 min, and then 50 μL of the supernatants were transferred to transparent, flat-bottom 96-well plates (Anicrin, A013418). Finally, absorption was measured at 405, 530, and 570 nm in a Victor Nivo Multimode microplate reader (Perkin Elmer, Waltham, MA, USA).

rabbit whole blood = conditions: for Hemolysis ratio: rabbit whole blood, AMPs 100 μM, 1 hour 37 °C, 3 x 2 replicates
Source text: as §1, §2, §3, §4, §5, §6

rabbit erythrocytes = conditions: AMPs 100 μM, 1 hour 37 °C, pos. 10% Triton X-100, neg. PBS, 3 x 2 replicates
Source text: as §1, §2, §3, §4, §5, §6

rat erythrocytes = conditions: AMPs 100 μM, 1 hour 37 °C, pos. 10% Triton X-100, neg. PBS, 3 x 2 replicates
Source text: as §1, §2, §3, §4, §5, §6

[2] = tested on: washed human erythrocytes; assay: Flow cytometry of treated erythrocytes with live/dead amine-reactive stain; type: cell-based; conditions: washed human erythrocytes treated 60 minutes, AMPs 100 μM, amine-reactive dye 488, flow cytometry 533/30 nm
Description: Briefly, a 1% washed erythrocyte solution was diluted to ~10^5 cells/mL and 0.4% Trypan blue (1:1 ratio) was added before 10 μL of the stained cell suspension was added to the Countess cell counting chamber slide. After a 30 s incubation, the slide was inserted into the instrument for automatic cell counting.
The Countess II automated cell counter (see above) was used to adjust the negative control sample to ~10^5 cells/mL and to subsequently dilute all samples by the same factor. Then, 0.5 μL of live/dead amine-reactive dye 488 (Fisher Scientific, Waltham, MA, USA) was added to 0.5 mL cell suspension and incubated for 30 min protected from light. Subsequently, the samples were washed twice with PBS pH 7 containing 1% bovine serum albumin (BSA), and finally resuspended in PBS pH 7 with 1% BSA. Cells were next counted, and the fluorescence measured using the 533/30 nm filter in an Accuri C6 flow cytometer (BD Biosciences, Franklin Lakes, NJ, USA).

Compound: CC[C@H](C)[C@H](NC(=O)[C@H](CC(C)C)NC(=O)[C@H](CCC(N)=O)NC(=O)[C@H](CC(C)C)NC(=O)[C@@H](NC(=O)[C@H](C)NC(=O)[C@H](CCCCN)NC(=O)[C@H](CCCCN)NC(=O)[C@H](CCCCN)NC(=O)[C@H](CCCCN)NC(=O)[C@H](CCCCN)NC(=O)[C@@H](NC(=O)[C@H](CCCNC(=N)N)NC(=O)[C@H](CCCCN)NC(=O)[C@@H](NC(=O)[C@H](CC(C)C)NC(=O)[C@H](Cc1ccc(O)cc1)NC(=O)[C@H](CCCNC(=N)N)NC(=O)CNC(=O)[C@H](CC(=O)O)NC(=O)[C@@H](NC(=O)[C@@H](N)CCSC)[C@@H](C)O)[C@@H](C)CC)C(C)C)C(C)C)C(=O)N[C@@H](CC(C)C)C(=O)N[C@@H](CCCCN)C(=O)N[C@@H](Cc1ccccc1)C(=O)N[C@@H](CC(C)C)C(N)=O [AMP 3]
- Minimum inhibitory concentration (E. coli) (E. coli): 4 µM (≈ 12.5 µg/mL)
- Calculated hemolysis ratio ([1]; 1% washed human erythrocytes, OD 530 nm, peptides 100 μM, 60 min 37 °C, pos. 10% Triton X-100, neg. PBS, 3 x 2 replicates): 68.4 ± 15%
- Calculated hemolysis ratio ([1]; 1% washed human erythrocytes, OD 570 nm, peptides 100 μM, 60 min 37 °C, pos. 10% Triton X-100, neg. PBS, 3 x 2 replicates): 65.7 ± 11.6%
- Calculated Hemolysis (%) ([1]; 2% pooled human erythrocytes, AMPs 100 µM, 60 min 37 °C, 405 nm, pos. 10% Triton X-100, neg. PBS, 3 x 2 replicates): 41.1 ± 3.2%
- Calculated Hemolysis (%) ([1]; 5% pooled human erythrocytes, AMPs 100 µM, 60 min 37 °C, 405 nm, pos. 10% Triton X-100, neg. PBS, 3 x 2 replicates): 45.7 ± 8.2%
- Calculated hemolysis ratio ([1]; Table 1: 1% human erythrocytes, 100 µM, 60 min 37 °C, OD 405 nm, pos. 10% Triton X-100, neg. PBS, mean ± SD, 3 experimental x 2 technical replicates): 37 ± 5.1%
- Calculated hemolysis ratio ([1]; Table 2: pooled blood from all 10 individuals, 1% erythrocytes, AMPs 100 µM, 60 min 37 °C, 405 nm, pos. 10% Triton X, neg. PBS, 3 x 2 replicates): 45.4 ± 4.8%
- Calculated Hemolysis (%) ([1]; Table 3: 1% pooled human erythrocytes, AMPs 100 µM, 60 min 37 °C, 405 nm, pos. 10% Triton X-100, neg. PBS, 3 x 2 replicates): 45.4 ± 4.8%
- Calculated hemolysis ratio ([1]; Table 4: incubation 60 min, 37 °C, 1% human erythrocytes, AMPs 100 µM, 405 nm, pos. 10% Triton X-100, neg. PBS, 3 biological x 2 technical replicates): 64.6 ± 6.8%
- Calculated hemolysis ratio ([1]; Table 6: 1% washed human erythrocytes, OD 405 nm, peptides 100 μM, 60 min 37 °C, pos. 10% Triton X-100, neg. PBS, 3 x 2 replicates): 73.5 ± 14.4%
- Calculated hemolysis ratio ([1]; human individual # 1, 1% erythrocytes, AMPs 100 µM, 60 min 37 °C, 405 nm, pos. 10% Triton X, neg. PBS, 3 x 2 replicates): 36.4 ± 5%
- Calculated hemolysis ratio ([1]; human individual # 2, 1% erythrocytes, AMPs 100 µM, 60 min 37 °C, 405 nm, pos. 10% Triton X, neg. PBS, 3 x 2 replicates): 39.3 ± 6%
- Calculated hemolysis ratio ([1]; human individual # 3, 1% erythrocytes, AMPs 100 µM, 60 min 37 °C, 405 nm, pos. 10% Triton X, neg. PBS, 3 x 2 replicates): 49.4 ± 8.5%
- Calculated hemolysis ratio ([1]; human individual # 4, 1% erythrocytes, AMPs 100 µM, 60 min 37 °C, 405 nm, pos. 10% Triton X, neg. PBS, 3 x 2 replicates): 43.6 ± 4.2%
- Calculated hemolysis ratio ([1]; human individual # 5, 1% erythrocytes, AMPs 100 µM, 60 min 37 °C, 405 nm, pos. 10% Triton X, neg. PBS, 3 x 2 replicates): 38.3 ± 7.3%
- Calculated hemolysis ratio ([1]; human individual # 6, 1% erythrocytes, AMPs 100 µM, 60 min 37 °C, 405 nm, pos. 10% Triton X, neg. PBS, 3 x 2 replicates): 45.7 ± 6.4%
- Calculated hemolysis ratio ([1]; human individual # 7, 1% erythrocytes, AMPs 100 µM, 60 min 37 °C, 405 nm, pos. 10% Triton X, neg. PBS, 3 x 2 replicates): 37.7 ± 6.9%
- Calculated hemolysis ratio ([1]; human individual # 8, 1% erythrocytes, AMPs 100 µM, 60 min 37 °C, 405 nm, pos. 10% Triton X, neg. PBS, 3 x 2 replicates): 45.6 ± 9.2%
- Calculated hemolysis ratio ([1]; human individual # 9, 1% erythrocytes, AMPs 100 µM, 60 min 37 °C, 405 nm, pos. 10% Triton X, neg. PBS, 3 x 2 replicates): 42.1 ± 4.7%
- Calculated hemolysis ratio ([1]; human individual # 10, 1% erythrocytes, AMPs 100 µM, 60 min 37 °C, 405 nm, pos. 10% Triton X, neg. PBS, 3 x 2 replicates): 50.3 ± 4.6%
- Calculated hemolysis ratio ([1]; incubated in polypropylene tubes, 1% washed human erythrocytes, peptides 100 μM, 60 min 37 °C, 405 nm, pos. 10% Triton X-100, neg. PBS, 3 x 2 replicates): 57.5 ± 13.2%
- Calculated hemolysis ratio ([1]; incubated in polystyrene tubes, 1% washed human erythrocytes, peptides 100 μM, 60 min 37 °C, 405 nm, pos. 10% Triton X-100, neg. PBS, 3 x 2 replicates): 66.7 ± 12.7%
- Calculated hemolysis ratio ([1]; incubation 15 min, 37 °C, 1% human erythrocytes, AMPs 100 µM, 405 nm, pos. 10% Triton X-100, neg. PBS, 3 biological x 2 technical replicates): 54.8 ± 8.2%
- Calculated hemolysis ratio ([1]; incubation 30 min, 37 °C, 1% human erythrocytes, AMPs 100 µM, 405 nm, pos. 10% Triton X-100, neg. PBS, 3 biological x 2 technical replicates): 56.6 ± 7.4%
- Calculated hemolysis ratio ([1]; incubation 90 min, 37 °C, 1% human erythrocytes, AMPs 100 µM, 405 nm, pos. 10% Triton X-100, neg. PBS, 3 biological x 2 technical replicates): 63 ± 4.5%
- Calculated hemolysis ratio ([1]; incubation 120 min, 37 °C, 1% human erythrocytes, AMPs 100 µM, 405 nm, pos. 10% Triton X-100, neg. PBS, 3 biological x 2 technical replicates): 74.3 ± 21.1%
- Observed hemolytic properties (qualitative) ([1]; reason for choice of the AMPs): high
- Calculated hemolysis ratio ([1]; total incubation volume 100 μL, 1% washed human erythrocytes, peptides 100 μM, 60 min 37 °C, 405 nm, pos. 10% Triton X-100, neg. PBS, 3 x 2 replicates): 66.7 ± 12.7%
- Calculated hemolysis ratio ([1]; total incubation volume 500 μL, 1% washed human erythrocytes, peptides 100 μM, 60 min 37 °C, 405 nm, pos. 10% Triton X-100, neg. PBS, 3 x 2 replicates): 72.7 ± 10.4%
- Calculated hemolysis ratio (human whole blood; OD 405 nm (signal saturated), pos. 10% SDS): 15.5 ± 7.1%
- Calculated hemolysis ratio (human whole blood; OD 530 nm, pos. 10% SDS): 2.7%
- Calculated hemolysis ratio (human whole blood; OD 570 nm, pos. 10% Triton X-100 (table title; text says 10% SDS)): 3.8%
- Fold reduction in HR in human whole blood in comparison with washed erythrocytes measured at 405 nm (human whole blood; whole blood HR with 10% SDS as positive control (Table 5) vs washed erythrocytes (Table 6), 100 μM): > 27 fold
- Hemolysis ratio (mouse erythrocytes; Table S4: washed mouse erythrocytes, OD 405 nm): 77.1 +/- 3.8%
- Hemolysis ratio (mouse erythrocytes; washed mouse erythrocytes, OD 530 nm): 71.1 +/- 3.2%
- Hemolysis ratio (mouse erythrocytes; washed mouse erythrocytes, OD 570 nm): 47.7 +/- 2.5%
- Fold decrease of hemolytic effect in rabbit whole blood vs washed rabbit erythrocytes (rabbit whole blood; cf. Tables S3 and S4, 100 μM): 4 fold
- Hemolysis ratio (rabbit whole blood; OD 530 nm, pos. 10% SDS, neg. PBS): 13.2 +/- 3%
- Hemolysis ratio (rabbit whole blood; OD 570 nm, pos. 10% Triton X-100, neg. PBS): 13.1 +/- 3.2%
- Hemolysis ratio (rabbit erythrocytes; Table S4: washed rabbit erythrocytes, OD 405 nm): 53.2 +/- 7.4%
- Hemolysis ratio (rabbit erythrocytes; washed rabbit erythrocytes, OD 530 nm): 50.1 +/- 7.7%
- Hemolysis ratio (rabbit erythrocytes; washed rabbit erythrocytes, OD 570 nm): 52.7 +/- 8.2%
- Hemolysis ratio (rat erythrocytes; Table S4: washed rat erythrocytes, OD 405 nm): 29.5 +/- 8.2%
- Hemolysis ratio (rat erythrocytes; washed rat erythrocytes, OD 530 nm): 30.7 +/- 13.1%
- Hemolysis ratio (rat erythrocytes; washed rat erythrocytes, OD 570 nm): 31.1 +/- 12.7%
- Fluorescence intensity per cell of remaining intact cells (live/dead stain) [2]: surprisingly high fluorescence intensity measurements per cell
